Laboratory results: EP0552223B1, “USE OF BENZENE DERIVATIVES AS CHARGE TRANSFER MEDIATORS” (NOVO NORDISK A/S, priority 1990, dated 1992)
Where a name gives a salt, the structure may show the parent alone.

How the values were obtained:
[1] = target: T1, Glucose oxidase (GOD) (E.C.1.1.3.4.) (Aspergillus niger, UniProt P13006); assay: Cyclic voltammetry of GOD-graphite/paraffin pasta electrode containing the mediator; format: biochemical; details: Ag/AgCl ref.
Method: • 1) A paste containing GOD-immobilized graphite, paraffin and mediator is prepared. If the mediator has a big solubility in paraffin then 10 mg of mediator is used per ml of paraffin. If the mediator has a little solubility in paraffin then 50 mg of crystals are added per ml of paraffin in order to obtain a homogeneous mixture before graphite is added. The paste obtained is filled into sticks. • 2) The activity of the paste is determined in a cyclic voltametri equipment where the current is measured as a function of the potential (CV sweep). Five concentrations of glucose are measured, i.e., 0, 5, 10, 15 and 20 mM. Based upon the results obtained, the following is evaluated: • a) whether the mediator can be oxidized and reduced by the graphite electrode, • b) whether the mediator can be reduced of GOD, • c) the optimal potential for the electorde to be used, • d) whether a lineary response as a function of the concentration of glucose can be obtained using the concentration of mediator in question, • e) whether the concentration of the mediator can be optimized. • 3) The response as a function of time at the optimal potential is to be measured. The time interval within which the response represents a stable response for the concentration of glucose is to be evaluated. • 4) The stability of the mediator in the paste question is determined.
(§1) Glucose oxidase (GOD) (E.C.1.1.3.4.) was immobilized on graphite particles by the following procedure: 10 g of graphite was oxidized in air at 100°C for 24 hours. The surface oxidized graphite particles were activated with 500 mg of 1-cyclohexyl-3-(2-morpholinoethyl)carbodiimide metho-p-toluenesulfonate in 100 ml of 0.1 M acetate buffer (pH 4.76) for 2 hours, then washed with distilled water until an approximately neutral pH value and dried. The activated graphite was mixed with 30 ml of 0.01 phosphate buffer (pH 7.3) containing 80,000 IU GOD and 4% glutaraldehyde for 16 hours at 4°C, dried and sieved through a 48 mesh to obtain uniform particles.
(§2) 1 g of paraffin oil containing 5% Methylene green (4-nitro-3,7-bis(dimethylamino)phenothiazine) was mixed carefully with 2 g of GOD modified graphite to a uniform pasta.
(§3) The pasta was filled into a plastic rod in which it was possible to cut a thin cross-sectional slice to introduce a new well-defined electrode area. Before each measurement, the electrode surface was renewed. The working electrode area used was 3 mm^2.
In the study of the working electrode, an Ag auxiliary electrode and an Ag/AgCl reference electrode was used. In a cyclic voltammogram, a catalytic current from the reoxidation of the mediator was observed beginning at -50 mV and being stable between 50 and 400 mV. The current was proportional to the concentration of glucose used.
(§4) Data in the table are obtained using the same procedure as in Example 1.

[2] = target: T1, Glucose oxidase (GOD) (E.C.1.1.3.4.); assay: Chronoamperometry of GOD-graphite/paraffin pasta electrode containing the mediator (glucose measurement); format: biochemical; details: for Working potential: Ag/AgCl ref.; for SD% of 100 measurement / Signal to noice ration: at 7mM glucose
Method: as §1, §2, §3
Chronoamperometry was preformed at 100 mV using the integrated current from 30 to 60 seconds after applying the potential. A linearity up to 40 mM glucose was obtained. The current was 500 nA/(sec*mM). The signal was not affected by the oxygen concentration in the solution. Reference pasta without Methylene green was not affected by different glucose concentrations.
as §4

[3] = Redox potential of the mediator at GC electrode; format: physicochemical; details: Ag/AgCl ref.; in mV (unit assumed)
Description: as §4

[4] = Stability test of pasta rods with selected mediators stored at different temperatures; format: physicochemical; design: unit not given here
Method: The stability of a paste with a certain mediator can be determined using the following method:
The mediator is dissolved or mixed with paraffin and, thereafter, the enzyme coupled to graphite is added. The mixture is homogenized giving a paste. This paste is filled into electrode holders of plast giving so-called sticks. These sticks are tested using 0 and 10 mM glucose standards in order to characterize the activity of these sticks in relation to glucose. Thereafter, the paste containing sticks are stored at a constant temperature, for example, 4, 20, 35 and 54°C. After a certain period of time, for example 1 month, the sticks are tested using the 0 and 10 mM glucose standards and the activities measured are compared with the activity measured at originally.
Data are obtained using the same basis procedure as in Example 1. Rods with selected mediators were stored at different temperature to accelerate processes which could give new analytical performance.

Lactate oxidase = target: T2, Lactate oxidase (Aerococcus viridans, UniProt Q44467); assay: Lactate assay with enzyme-graphite pasta electrode and mediator; format: biochemical; details: lactate system; at 100 mV vs. Ag/AgCl reference electrode
T2 construct: purchased Sigma
T2 sequence (Q44467 1-374): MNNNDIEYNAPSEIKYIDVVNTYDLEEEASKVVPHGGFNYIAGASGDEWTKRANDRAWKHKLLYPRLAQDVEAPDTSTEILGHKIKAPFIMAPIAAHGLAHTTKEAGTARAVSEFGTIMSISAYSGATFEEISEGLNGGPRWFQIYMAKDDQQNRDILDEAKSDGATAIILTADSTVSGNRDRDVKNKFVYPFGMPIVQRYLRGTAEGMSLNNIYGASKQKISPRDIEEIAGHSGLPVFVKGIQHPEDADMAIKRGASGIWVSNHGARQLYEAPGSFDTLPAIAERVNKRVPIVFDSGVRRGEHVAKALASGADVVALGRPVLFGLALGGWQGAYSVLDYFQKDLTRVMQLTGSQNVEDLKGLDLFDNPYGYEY
Method: Lactate oxidase and alcohol oxidase were obtained from Sigma and the enzymes were used as in Example 1. The same mediators as in Example 4 were tested in the electrodes. The best response for the lactate system was obtained with Methylene green, which gave a current density at 4 µA/cm^2/mM at 100 mV vs. Ag/AgCl reference electrode. For the alcohol system ethanol was used as enzyme substrate. The current density was much lower than for the lactate system and none of the tested mediators worked optimally. Other mediators sucessfully tested with glucose oxidase are expected to give higher current densitites due to differences in hydrophobicity and hydrophillicity.

T1 sequence (P13006 17-605, species assumed): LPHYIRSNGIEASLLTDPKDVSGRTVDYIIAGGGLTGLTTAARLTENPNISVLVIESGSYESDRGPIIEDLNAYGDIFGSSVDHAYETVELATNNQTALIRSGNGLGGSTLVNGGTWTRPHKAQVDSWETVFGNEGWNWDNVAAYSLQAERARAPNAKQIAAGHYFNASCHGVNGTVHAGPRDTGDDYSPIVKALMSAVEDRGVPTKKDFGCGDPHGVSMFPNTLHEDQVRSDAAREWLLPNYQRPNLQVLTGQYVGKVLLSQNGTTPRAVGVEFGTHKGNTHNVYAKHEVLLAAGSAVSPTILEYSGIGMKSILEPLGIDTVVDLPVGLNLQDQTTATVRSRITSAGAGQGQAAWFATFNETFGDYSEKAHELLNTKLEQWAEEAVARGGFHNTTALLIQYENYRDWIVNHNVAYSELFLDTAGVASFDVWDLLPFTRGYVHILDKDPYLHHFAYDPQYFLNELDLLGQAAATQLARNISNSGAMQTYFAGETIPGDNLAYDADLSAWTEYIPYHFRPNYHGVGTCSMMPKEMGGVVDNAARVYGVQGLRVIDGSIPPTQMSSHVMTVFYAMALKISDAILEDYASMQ

Compound	Catalytic interval beginning at [1] [mV]	Working potential [2]	SD% of 100 measurement [2] [%]	Signal to noice ration [2]	Linearity ([2]; glucose) [mM]	Redoxpotential at GCElectrode [3]	activity of rod in stability test ([4]; 4°C, listed as a, Time 0)	activity of rod in stability test ([4]; 4°C, listed as b, Time 0)	activity of rod in stability test ([4]; 20°C, listed as a, Time 0)	activity of rod in stability test ([4]; 20°C, listed as b, Time 0)	activity of rod in stability test ([4]; 35°C, listed as a, Time 0)	activity of rod in stability test ([4]; 35°C, listed as b, Time 0)	activity of rod in stability test ([4]; 54°C, listed as a, Time 0)	activity of rod in stability test ([4]; 54°C, listed as b, Time 0)	activity of rod in stability test ([4]; 4°C, listed as a, Time 72)	activity of rod in stability test ([4]; 4°C, listed as b, Time 72)	activity of rod in stability test ([4]; 20°C, listed as a, Time 72)	activity of rod in stability test ([4]; 20°C, listed as b, Time 72)	activity of rod in stability test ([4]; 35°C, listed as a, Time 72)	activity of rod in stability test ([4]; 35°C, listed as b, Time 72)	other results
c1cc(N2CCOCC2)ccc1N1CCCCC1 [MPP, 1-morpholino-4-piperidinobenzene]	20	100	4.0	10	20	166	11.7	9.2	10.0	7.2	7.0	9.0	12.5	11.3							activity of rod in stability test ([4]; 4°C, listed as a, Time 70): 8.8; activity of rod in stability test ([4]; 4°C, listed as b, Time 70): 10.5; activity of rod in stability test ([4]; 20°C, listed as a, Time 70): 11.9; activity of rod in stability test ([4]; 20°C, listed as b, Time 70): 9.3; activity of rod in stability test ([4]; 35°C, listed as a, Time 70): 9.0; activity of rod in stability test ([4]; 35°C, listed as b, Time 70): 9.5; activity of rod in stability test ([4]; 54°C, listed as a, Time 70): 4.1; activity of rod in stability test ([4]; 54°C, listed as b, Time 70): 4.7
C[N+](C)=c1ccc2nc3c(ccc4ccccc43)oc-2c1 [MB, 7-dimethylamino-1,2-benzophenoxazinium salts]	-50	100	6.5	4.8	40	-175															
CN(C)c1ccc(N2CCOCC2)cc1 [MDMP, 1-dimethylamino-4-morpholinobenzene]	-20	100	4.5	8.3	20	124	17.2	16.2	16.4	16.0	15.4	13.4	17.4	14.4	16.9	18.1	17.4	15.4	15.7	14.5	activity of rod in stability test ([4]; 54°C, listed as a, Time 72): 6.9; activity of rod in stability test ([4]; 54°C, listed as b, Time 72): 8.5
CN(C)c1ccc2c(c1)Sc1c(ccc(N(C)C)c1[N+](=O)[O-])N2 [MG, 4-nitro-3,7-bis(dimethylamino)phenothiazine]	-50	100	7.5	22.5	40	-149	13.7	10.0	14.9	12.5	12.1	13.3	15.8	12.8							signal affected by the oxygen concentration in the solution ([2]; at 100 mV): not affected; current ([2]; at 100 mV, integrated current from 30 to 60 seconds after applying the potential): 500 nA/(sec*mM); Linearity in mM ([2]; glucose, listed as Methylene green): up to 40 mM; activity of rod in stability test ([4]; 4°C, listed as a, Time 75): 13.2; activity of rod in stability test ([4]; 4°C, listed as b, Time 75): 14.3; activity of rod in stability test ([4]; 20°C, listed as a, Time 75): 14.3; activity of rod in stability test ([4]; 20°C, listed as b, Time 75): 15.4; activity of rod in stability test ([4]; 35°C, listed as a, Time 75): 11.2; activity of rod in stability test ([4]; 35°C, listed as b, Time 75): 12.2; activity of rod in stability test ([4]; 54°C, listed as a, Time 75): 10.4; activity of rod in stability test ([4]; 54°C, listed as b, Time 75): 12.6; current density (Lactate oxidase): 4 µA/cm^2/mM
c1cc(N2CCOCC2)ccc1N1CCOCC1 [BMP, 1,4-dimorpholinobenzene]	50	200	6.5	5.6	20	246	20.2	21.3	18.5	20.5	20.0	16.7	18.4	20.5	21.2	19.3	21.4	23.3	18.0	20.3	activity of rod in stability test ([4]; 54°C, listed as a, Time 72): 15.0; activity of rod in stability test ([4]; 54°C, listed as b, Time 72): 14.6
c1cc(N2CCCCC2)ccc1N1CCCCC1 [BPP, 1,4-dipiperidinobenzene]	0	150	3.5	4.7	20	141	12.3	11.1	10.0	10.5	9.1	10.6	11.1	10.3							activity of rod in stability test ([4]; 4°C, listed as a, Time 78): 12.4; activity of rod in stability test ([4]; 4°C, listed as b, Time 78): 13.7; activity of rod in stability test ([4]; 20°C, listed as a, Time 78): 11.0; activity of rod in stability test ([4]; 20°C, listed as b, Time 78): 11.1; activity of rod in stability test ([4]; 35°C, listed as a, Time 78): 8.7; activity of rod in stability test ([4]; 35°C, listed as b, Time 78): 10.4; activity of rod in stability test ([4]; 54°C, listed as a, Time 78): 6.7; activity of rod in stability test ([4]; 54°C, listed as b, Time 78): 5.6
